Patent US9133224B2, “Macrocyclic kinase inhibitors” (OSI Pharmaceuticals, LLC, priority 2010, dated 2015)
Where two headings read alike, the source gives them in different places. One block for each compound: values may come before it.

Tests used:
FAK = molecular target: T1, FAK (Homo sapiens, UniProt Q05397); test: Cell-based capture ELISA for inhibition of FAK autophosphorylation [pY397] in U87MG cells
T1 construct: endogenous in cells; host or cells: U87MG glioblastoma cells (ATCC HTB-14)
Procedure: Cell-Based Assays for Inhibition of FAK Autophosphorylation: MiaPaCa2 and U87MG
The ability of compounds to inhibit FAK autophosphorylation was determined in a cell-based capture ELISA assay using U87MG glioblastoma cells (ATCC, Cat # HTB-14) and the FAK [pY397]ELISA kit from Invitrogen (KHO0441). The assay determines the ability of compounds to block endogenous autophosphorylation of FAK stimulated by fibronectin. Cells plated on fibronectin coated 96-well plate were incubated with compounds at various concentrations in the complete growth medium for 2 h. Cell lysates were then prepared and FAK protein was captured onto a FAK antibody-coated 96-well ELISA plate. The phosphotyrosine content of FAK protein was then monitored by quantitation of degree of binding of an antibody that recognizes only the phosphorylated FAK at Y397 within the captured protein.
Reagents Provided in Biosource FAK [pY397]
Cultures of U87MG cells growing in MEM (Earles) containing non-essential amino acids, sodium pyruvate (1 mM), […] (1%) and 10% fetal bovine serum were detached by trypsin-EDTA and suspended in cell growth medium. Cells were then plated onto fibronectin (600 ng/well)-coated 96-well flat bottom plates at 1.7×10^4 cells per well in 60 uL cell growth medium and incubated overnight at 37° C. in a CO2 incubator.
Compound dilutions were prepared from 10 mM DMSO stocks by dilution in cell growth medium, the final concentration of DMSO in the assay being 0.6%. […] The cells were then incubated with compounds at 37° C. for 2 h. The medium was removed by aspiration and cells were lysed by addition of 20 uL of ice-cold cell lysis buffer per well. The plates were kept on ice for 20 min and 50 uL of standard diluent was added to each well. 50 uL of cell lysate from each well was transferred to respective wells in an assay plate and 50 uL of detection antibody was added to all wells except H1-H6 which were no antibody control wells. Capture assay plates were incubated overnight in a cold room.
Following incubation of the cell lysates and detection antibodies in the ELISA plate, the wells were washed 4 times with 120 uL of wash buffer (1×), then 100 uL of diluted HRP conjugated antibody (1:100 dil in diluent) was added to each well, and the plate was incubated at RT for 30 min. The wells were then washed for 4 times with 120 uL of wash buffer (1×) and 100 uL of chromogen was added to each well and incubated in the dark at RT for 5-10 min. 100 uL of stop solution was added to each well and the absorbance measured at 450 nm, 0.1 s.
Comparison of the assay signals obtained in the presence of compound with those of positive and negative controls (cells with no compound and no detection antibody being added), allows degree of inhibition of phospho-FAK [Y397] to be determined over a range of compound concentrations. […] The assay as described above was modified to determine the effect of inclusion of 50% (v/v) mouse or human plasma. In this assay, the compound plate was prepared as 2× concentration in 100 uL of 100% mouse or human plasma, and 60 uL of this was added to 60 uL of culture medium and incubated at 37° C. incubator for 2 h. The rest of the assay was carried out as described above.

[1] = molecular target: T2, GST-tagged full-length FAK enzyme (PTK2) (Homo sapiens, UniProt Q05397); test: Biochemical Omnia Assay (FAK)
T2 construct: GST-tagged full-length FAK enzyme (PTK2, Invitrogen PV4085); GST; purchased Invitrogen PV4085
T2 sequence (Q05397 whole entry): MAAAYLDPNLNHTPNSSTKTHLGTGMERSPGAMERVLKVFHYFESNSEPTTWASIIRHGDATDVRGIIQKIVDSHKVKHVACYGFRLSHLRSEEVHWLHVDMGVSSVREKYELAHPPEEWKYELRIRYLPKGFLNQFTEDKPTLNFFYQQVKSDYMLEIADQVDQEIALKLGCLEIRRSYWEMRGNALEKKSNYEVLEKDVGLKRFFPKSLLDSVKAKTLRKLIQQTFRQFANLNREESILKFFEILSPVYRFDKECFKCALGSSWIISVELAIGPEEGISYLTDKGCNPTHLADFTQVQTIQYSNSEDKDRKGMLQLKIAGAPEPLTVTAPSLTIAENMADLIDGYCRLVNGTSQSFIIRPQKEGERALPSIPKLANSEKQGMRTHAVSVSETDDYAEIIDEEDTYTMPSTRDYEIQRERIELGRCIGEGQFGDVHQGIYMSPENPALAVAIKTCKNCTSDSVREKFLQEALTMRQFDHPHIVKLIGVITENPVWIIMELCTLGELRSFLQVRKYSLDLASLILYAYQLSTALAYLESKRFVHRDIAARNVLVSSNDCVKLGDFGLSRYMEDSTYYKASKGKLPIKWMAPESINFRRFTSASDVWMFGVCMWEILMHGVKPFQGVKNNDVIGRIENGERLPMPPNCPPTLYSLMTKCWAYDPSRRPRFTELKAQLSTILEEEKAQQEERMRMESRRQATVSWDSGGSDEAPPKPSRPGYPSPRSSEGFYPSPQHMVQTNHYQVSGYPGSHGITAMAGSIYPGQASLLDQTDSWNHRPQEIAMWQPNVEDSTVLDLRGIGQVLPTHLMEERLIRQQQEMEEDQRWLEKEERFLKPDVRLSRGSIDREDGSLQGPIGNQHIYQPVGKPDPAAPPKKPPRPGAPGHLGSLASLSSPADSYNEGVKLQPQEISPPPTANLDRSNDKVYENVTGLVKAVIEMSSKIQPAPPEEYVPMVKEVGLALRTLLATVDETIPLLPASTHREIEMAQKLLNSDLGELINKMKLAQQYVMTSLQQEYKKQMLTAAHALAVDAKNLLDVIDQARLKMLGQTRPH
Procedure: Biochemical Omnia Assay Protocol
The Omnia Assay (Invitrogen) has been optimized for GST-tagged full-length FAK enzyme (PTK2, Invitrogen PV4085).
All compound concentrations were assayed in duplicate. Initial compound dilutions were prepared at 100× concentration in 100% DMSO from a 10 mM stock solution. Compounds were further diluted 1:25 in assay buffer resulting in a 4× concentrated solution.
In running the assay, 5 μL of the above 4× concentrated compound solution (or 4% DMSO for positive controls) was added to the assay plate followed by 5 μL of a solution containing peptide (40 μM) and ATP (200 μM) in assay buffer. The reaction was initiated by the addition of 10 μL of FAK (50 nM) in assay buffer, or assay buffer alone for negative controls. The increase in fluorescence due to peptide phosphorylation was monitored continuously as a function of time using a Spectramax M5 plate reader (Molecular Devices) equipped with SoftMax Pro 5.2 software.
IC50 values were determined from the slopes of the linear progress curves by non-linear curve-fitting using GraphPad Prism 5 (GraphPad Software, Inc.).

[2] = 50% (v/v) human plasma, mean IC50, read-out: FAK Activity Mechanistic (U87MG) HP
[3] = 50% (v/v) mouse plasma, mean IC50, read-out: FAK Activity Mechanistic (U87MG) MP
[4] = no plasma present, mean IC50, read-out: FAK Activity Mechanistic (U87MG) NP

T1 sequence (Q05397 whole entry): as above

Structure (SMILES): CCOP1(=O)Cc2ccc(c(OC)c2)Nc2ncc(C(F)(F)F)c(n2)Nc2ccc(nc2C(=O)NOC)-c2cnn(c2)CCCO1 (racemic) [Example 46]
IC50 (FAK; [2]): < 0.4 µM
IC50 (FAK; [3]): 0.4 to 4 µM
IC50 (FAK; [4]): < 0.4 µM
IC50 [1]: < 0.4 µM

Structure (SMILES): CCOP1(=O)Cc2ccc(c(OC)c2)Nc2ncc(C(F)(F)F)c(n2)Nc2ccc(nc2C(=O)NC)-c2cnn(c2Cl)CCCO1 (racemic) [Example 51]
IC50 (FAK; [2]): < 0.4 µM
IC50 (FAK; [3]): 0.4 to 4 µM
IC50 (FAK; [4]): < 0.4 µM
IC50 [1]: < 0.4 µM

Structure (SMILES): CCOP1(=O)Cc2ccc(c(Cl)c2)Nc2ncc(C(F)(F)F)c(n2)Nc2ccc(nc2C(=O)NC)-c2cnn(c2)CCCCO1 (racemic) [Example 25]
IC50 (FAK; [2]): < 0.4 µM
IC50 (FAK; [4]): < 0.4 µM
IC50 [1]: < 0.4 µM

Structure (SMILES): CCOP1(=O)Cc2ccc(c(F)c2)Nc2ncc(C(F)(F)F)c(n2)Nc2ccc(nc2C(=O)NC)-c2cnn(c2)CCCO1 (racemic) [Example 22]
IC50 (FAK; [2]): < 0.4 µM
IC50 (FAK; [4]): 0.4 to 4 µM
IC50 [1]: < 0.4 µM

IC50 (FAK; [2]): < 0.4 µM
IC50 (FAK; [3]): < 0.4 µM
IC50 (FAK; [4]): < 0.4 µM
IC50 ([1]; mean IC50, [ATP] = 50uM, read-out: FAK Activity Biochemical OMNIA, [ATP] = 50uM): < 0.4 µM
Structure (SMILES): CCP1(=O)Cc2ccc(c(OC)c2)Nc2ncc(C(F)(F)F)c(n2)Nc2ccc(nc2C(=O)NC)-c2cnn(c2)CCCO1 (racemic) [Example 67]

Structure (SMILES): CCOP1(=O)Cc2cc(OC)c(cc2Cl)Nc2ncc(C(F)(F)F)c(n2)Nc2ccc(nc2C(=O)NC)-c2cnn(c2)CC2(COC2)CO1 (single isomer, unassigned) [Example 57A]
IC50 (FAK; [2]): > 4 µM
IC50 (FAK; [3]): 0.4 to 4 µM
IC50 (FAK; [4]): < 0.4 µM
IC50 [1]: < 0.4 µM

Structure (SMILES): CCOP1(=O)Cc2cc(OC)c(cc2Cl)Nc2ncc(C(F)(F)F)c(n2)Nc2ccc(nc2C(=O)NC)-c2cnn(c2)CCCO1 (racemic) [Example 56]
IC50 (FAK; [2]): > 4 µM
IC50 (FAK; [3]): 0.4 to 4 µM
IC50 (FAK; [4]): < 0.4 µM
IC50 [1]: < 0.4 µM

Structure (SMILES): CCOP1(=O)Cc2ccc(c(OC)c2)Nc2ncc(C(F)(F)F)c(n2)Nc2ccc(nc2C(=O)NC)-c2cc(C(=O)O)n(c2)CCCO1 (racemic) [Example 39]
IC50 (FAK; FAK Activity Mechanistic (U87MG) MP, 50% (v/v) mouse plasma, mean IC50): > 4 µM
IC50 (FAK; [4]): 0.4 to 4 µM
IC50 [1]: < 0.4 µM

Structure (SMILES): CCOP1(=O)Cc2ccc(c(OC)c2)Nc2ncc(C(F)(F)F)c(n2)Nc2ccc(nc2C(=O)NC)-c2cn(nc2OC)CCCO1 (single isomer, unassigned) [Example 48A]
IC50 (FAK; [2]): > 4 µM
IC50 (FAK; [3]): 0.4 to 4 µM
IC50 (FAK; [4]): < 0.4 µM
IC50 [1]: < 0.4 µM

Structure (SMILES): CCOP1(=O)Cc2cc(OC)c(cc2Cl)Nc2ncc(C(F)(F)F)c(n2)Nc2ccc(nc2C(=O)NC)-c2cnn(c2)CCCO1 (single isomer, unassigned) [Example 56A]
IC50 (FAK; [2]): > 4 µM
IC50 (FAK; [3]): 0.4 to 4 µM
IC50 (FAK; [4]): < 0.4 µM
IC50 [1]: < 0.4 µM

Structure (SMILES): CCOP1(=O)Cc2ccc(cc2)Nc2ncc(C(F)(F)F)c(n2)Nc2ccc(nc2C(=O)NC)-c2cnn(c2)CCCCO1 (stereo not shown) [Example 16, 11-ethoxy-N-methyl-21-(trifluoromethyl)-10-oxa-4,5,17,19,23,26,29-heptaaza-11-phosphapentacyclo[22.2.2.2^13,16.1^2,5.1^18,22]dotriaconta-1(26),2(32),3,13,15,18(29),19,21,24,27,30-undecaene-25-carboxamide 11-oxide]
IC50 (FAK; [2]): < 0.4 µM
IC50 (FAK; [4]): < 0.4 µM
IC50 [1]: < 0.4 µM

Structure (SMILES): CCOP1(=O)Cc2ccc(c(Cl)c2)Nc2ncc(C(F)(F)F)c(n2)Nc2ccc(nc2C(=O)NC)-c2cnn(c2)CC2(COC2)CO1 (single isomer, unassigned) [Example 58A]
IC50 (FAK; [2]): 0.4 to 4 µM
IC50 (FAK; [4]): < 0.4 µM
IC50 [1]: < 0.4 µM

Structure (SMILES): CCOP1(=O)Cc2ccc(c(OC)c2)Nc2ncc(C(F)(F)F)c(n2)Nc2ccc(nc2C(=O)NC)-c2cnn(c2)CC2(COC2)CO1 (single isomer, unassigned) [Example 44A]
IC50 (FAK; [2]): < 0.4 µM
IC50 (FAK; [4]): < 0.4 µM
IC50 [1]: < 0.4 µM
